{"source": "patent US9062031B2", "about": "“Method of preparing polymorphic pure form A of bazedoxifene acetate” (SANDOZ AG, priority 2010, dated 2015)", "origin": "cited, not measured here", "key": {"[1]": {"details": "solvent or solvent mixture, for example ethylacetate and ethanol"}, "[2]": {"details": "aqueous and organic solvent systems"}}, "data": [{"smiles": "Cc1c(-c2ccc(O)cc2)n(Cc2ccc(OCCN3CCCCCC3)cc2)c2ccc(O)cc12", "note": "[Bazedoxifene x acetate form A, 1-[[4-[2-(Hexahydro-1H-azepin-1-Dethoxy]phenyl]methyl]-2-(4-hydroxyphenyl)-3-methyl-1H-indol-5-ol monoacetate]", "values": [{"measurement": "Conversion to form B upon contact with solvent", "setting": "[1]", "result": "can easily convert to form B"}, {"measurement": "Solubility compared with form B", "setting": "[2]", "result": "higher solubility than form B"}]}]}
